Assay results taken from patent publication US8791148B2, “Substituted benzimidazolone derivatives, medicaments comprising them and their use” (AbbVie Deutschland GmbH & Co. KG, priority 2006, dated 2014).

Target: T1, human vasopressin V1b receptor (Homo sapiens, UniProt P47901)
T1 construct: expressed in transfected cells; host or cells: CHO-K1 (cell line hV1b-3H2_CHO), membrane preparation
T1 sequence (P47901 1-424): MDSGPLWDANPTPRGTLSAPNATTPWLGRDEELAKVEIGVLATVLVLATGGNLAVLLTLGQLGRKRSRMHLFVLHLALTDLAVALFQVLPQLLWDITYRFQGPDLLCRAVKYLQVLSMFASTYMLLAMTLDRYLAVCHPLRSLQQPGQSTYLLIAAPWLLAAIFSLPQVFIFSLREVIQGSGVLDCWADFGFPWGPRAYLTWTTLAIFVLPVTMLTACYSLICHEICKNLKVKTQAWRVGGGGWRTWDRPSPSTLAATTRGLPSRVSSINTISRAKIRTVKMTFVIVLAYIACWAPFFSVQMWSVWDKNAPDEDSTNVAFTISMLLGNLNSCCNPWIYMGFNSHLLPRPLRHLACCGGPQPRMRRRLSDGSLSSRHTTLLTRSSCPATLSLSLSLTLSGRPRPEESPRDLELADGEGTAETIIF
Experiment: Vasopressin V1b receptor binding assay
Settings: membranes from CHO-K1 cells with stably expressed human V1b receptors; displacement of 1.5 nM 3H-AVP; read-out: V1b receptor affinity (affinity constant Ki)
How it was run: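 Ki values come from nonlinear regression of triplicate scintillation counts after filtration. Test compound (2% DMSO in the mixture) and radioligand were incubated 60 min at room temperature with human V1b membranes in pH 7.4 Tris buffer with 10 mM MgCl2 and 0.1% BSA. Nonspecific binding was set with 1 uM AVP.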

SMILES | Ki
N#Cc1ccc(S(=O)(=O)n2c(=O)n(C(C(=O)N3CCN(c4ccncc4)CC3)c3ccccc3)c3cc(Cl)c(Cl)cc32)cc1 (stereo not shown) [Example 62, 4-{5,6-Dichloro-2-oxo-3-[2-oxo-1-phenyl-2-(4-pyridin-4-ylpiperazin-1-yl)-ethyl]-2,3-dihydrobenzimidazol-1-sulfonyl}benzonitrile] | 500 to 10000 nM
COc1ccc(S(=O)(=O)n2c(=O)n(C(C(=O)N3CCC(N4CCN(C)CC4)CC3)c3ccccc3)c3cc(Cl)ccc32)c(OC)c1 (stereo not shown) [Example 63, 5-Chloro-1-(2,4-dimethoxybenzenesulfonyl)-3-{2-[4-(4-methylpiperazin-1-yl)piperidin-1-yl]-2-oxo-1-phenylethyl}-1,3-dihydrobenzimidazol-2-one] | 100 to 500 nM
COc1ccc(S(=O)(=O)n2c(=O)n(C(C(=O)N3CCC(N4CCN(C)CC4)CC3)c3ccccc3)c3cc(Cl)ccc32)cc1 (stereo not shown) [Example 64, 5-Chloro-1-(4-methoxybenzenesulfonyl)-3-{2-[4-(4-methylpiperazin-1-yl)piperidin-1-yl]-2-oxo-1-phenylethyl}-1,3-dihydrobenzimidazol-2-one] | 100 to 500 nM
CN1CCN(C2CCN(C(=O)C(c3ccccc3)n3c(=O)n(S(=O)(=O)c4ccc(C#N)cc4)c4ccc(Cl)cc43)CC2)CC1 (stereo not shown) [Example 65, 4-(5-Chloro-3-{2-[4-(4-methylpiperazin-1-yl)piperidin-1-yl]-2-oxo-1-phenylethyl}-2-oxo-2,3-dihydrobenzimidazole-1-sulfonyl)benzonitrile] | 100 to 500 nM
COc1ccc(S(=O)(=O)n2c(=O)n(C(C(=O)N3CCN(c4ccncc4)CC3)c3ccccc3)c3ccc(Cl)cc32)c(OC)c1 (stereo not shown) [Example 66, 5-Chloro-3-(2,4-dimethoxybenzenesulfonyl)-1-[2-oxo-1-phenyl-2-(4-pyridin-4-ylpiperazin-1-yl)ethyl]-1,3-dihydrobenzimidazol-2-one] | 500 to 10000 nM
COc1ccc(S(=O)(=O)n2c(=O)n(C(C(=O)N3CCN(C4CCN(C)CC4)CC3)c3ccccc3)c3ccccc32)c(OC)c1 (stereo not shown) [Example 67, 1-(2,4-Dimethoxybenzenesulfonyl)-3-{2-[4-(1-methylpiperidin-4-yl)piperazin-1-yl]-2-oxo-1-phenylethyl}-1,3-dihydrobenzimidazol-2-one] | 500 to 10000 nM
CN1CCC(N2CCN(C(=O)C(c3ccccc3)n3c(=O)n(S(=O)(=O)c4ccc(C#N)cc4)c4ccc(Cl)cc43)CC2)CC1 (stereo not shown) [Example 68, 4-(5-Chloro-3-{2-[4-(1-methylpiperidin-4-yl)piperazin-1-yl]-2-oxo-1-phenylethyl}-2-oxo-2,3-dihydrobenzimidazol-1-sulfonyl)benzonitrile] | 100 to 500 nM
COc1ccc(S(=O)(=O)n2c(=O)n(C(C(=O)N3CCN(C4CCN(C)CC4)CC3)c3ccccc3)c3cc(Cl)c(Cl)cc32)c(OC)c1 (stereo not shown) [Example 69, 5,6-Dichloro-1-(2,4-dimethoxybenzenesulfonyl)-3-{2-[4-(1-methylpiperidin-4-yl)piperazin-1-yl]-2-oxo-1-phenyl-ethyl}-1,3-dihydrobenzimidazol-2-one] | 500 to 10000 nM
COc1ccc(S(=O)(=O)n2c(=O)n(C(C(=O)N3CCN(c4ccncc4)CC3)c3ccccc3)c3ccccc32)c(OC)c1 (stereo not shown) [Example 70, 1-(2,4-Dimethoxybenzenesulfonyl)-3-[2-oxo-1-phenyl-2-(4-pyridin-4-ylpiperazin-1-yl)ethyl]-1,3-dihydrobenzimidazol-2-one] | 500 to 10000 nM
CN1CCC(N2CCN(C(=O)C(c3ccccc3)n3c(=O)n(S(=O)(=O)c4cccc5cccnc45)c4cc(Cl)ccc43)CC2)CC1 (stereo not shown) [Example 71, 5-Chloro-1-{2-[4-(1-methylpiperidin-4-yl)piperazin-1-yl]-2-oxo-1-phenyl-ethyl}-3-(quinoline-8-sulfonyl)-1,3-dihydrobenzimidazol-2-one] | 500 to 10000 nM
COc1ccc(S(=O)(=O)n2c(=O)n(C(C(=O)N3CCC(N4CCN(C)CC4)CC3)c3ccccc3)c3ccccc32)c(OC)c1 (stereo not shown) [Example 72, 1-(2,4-Dimethoxybenzenesulfonyl)-3-{2-[4-(4-methylpiperazin-1-yl)piperidin-1-yl]-2-oxo-1-phenylethyl}-1,3-dihydrobenzimidazol-2-one] | 500 to 10000 nM
COc1ccc(S(=O)(=O)n2c(=O)n(C(C(=O)N3CCN(c4ccncc4)CC3)c3ccccc3)c3ccc(Cl)cc32)cc1 (stereo not shown) [Example 73, 5-Chloro-3-(4-methoxybenzenesulfonyl)-1-[2-oxo-1-phenyl-2-(4-pyridin-4-ylpiperazin-1-yl)-ethyl]-1,3-dihydrobenzimidazol-2-one] | 100 to 500 nM
CCCN1CCN(C2CCN(C(=O)C(c3ccccc3)n3c(=O)n(S(=O)(=O)c4ccc(OC)cc4)c4cc(Cl)ccc43)C2)CC1 (stereo not shown) [Example 74, 5-Chloro-3-(4-methoxybenzenesulfonyl)-1-{2-oxo-1-phenyl-2-[3-(4-propylpiperazin-1-yl)-pyrrolidin-1-yl]ethyl}-1,3-dihydrobenzimidazol-2-one] | < 100 nM
CCCN1CCN(C2CCN(C(=O)C(C)n3c(=O)n(S(=O)(=O)c4ccc(OC)cc4)c4ccc(Cl)cc43)C2)CC1 (stereo not shown) [Example 75, 5-Chloro-1-(4-methoxybenzenesulfonyl)-3-{1-methyl-2-oxo-2-[3-(4-propylpiperazin-1-yl)-pyrrolidin-1-yl]ethyl}-1,3-dihydrobenzimidazol-2-one] | 100 to 500 nM
CCCN1CCN(C2CCN(C(=O)C(c3ccccc3OC)n3c(=O)n(S(=O)(=O)c4ccc(OC)cc4)c4ccc(Cl)cc43)C2)CC1 (stereo not shown) [Example 76, 5-Chloro-1-(4-methoxybenzenesulfonyl)-3-{1-(2-methoxyphenyl)-2-oxo-2-[3-(4-propylpiperazin-1-yl)pyrrolidin-1-yl]ethyl}-1,3-dihydrobenzimidazol-2-one] | < 100 nM
CCCN1CCN(C2CCN(C(=O)C(c3ccc(OC)cc3)n3c(=O)n(S(=O)(=O)c4ccc(OC)cc4)c4ccc(Cl)cc43)C2)CC1 (stereo not shown) [Example 78, 5-Chloro-1-(4-methoxybenzenesulfonyl)-3-{1-(4-methoxyphenyl)-2-oxo-2-[3-(4-propylpiperazin-1-yl)pyrrolidin-1-yl]ethyl}-1,3-dihydrobenzimidazol-2-one] | < 100 nM
CCCN1CCN(C2CCN(C(=O)C(c3cccc(OC)c3)n3c(=O)n(S(=O)(=O)c4ccc(OC)cc4)c4ccc(Cl)cc43)C2)CC1 (stereo not shown) [Example 79, 5-Chloro-1-(4-methoxybenzenesulfonyl)-3-{1-(3-methoxyphenyl)-2-oxo-2-[3-(4-propylpiperazin-1-yl)pyrrolidin-1-yl]-ethyl}-1,3-dihydrobenzimidazol-2-one] | < 100 nM
CCCN1CCN(C2CCN(C(=O)C(c3ccccc3)n3c(=O)n(S(=O)(=O)c4ccc(OC)cc4)c4ccc(I)cc43)C2)CC1 (stereo not shown) [Example 80, 5-Iodo-1-(4-methoxybenzenesulfonyl)-3-{2-oxo-1-phenyl-2-[3-(4-propylpiperazin-1-yl)pyrrolidin-1-yl]ethyl}-1,3-dihydrobenzimidazol-2-one] | < 100 nM
CCCN1CCN(C2CCN(C(=O)C(Cc3ccccc3)n3c(=O)n(S(=O)(=O)c4ccc(OC)cc4)c4ccc(Cl)cc43)C2)CC1 (stereo not shown) [Example 81, 3-{1-Benzyl-2-oxo-2-[3-(4-propylpiperazin-1-yl)pyrrolidin-1-yl]ethyl}-5-chloro-1-(4-methoxybenzenesulfonyl)-1,3-dihydrobenzimidazol-2-one] | 100 to 500 nM
COc1ccc(S(=O)(=O)n2c(=O)n(C(C(=O)N3CCN(c4ccccn4)CC3)c3ccccc3)c3cc(Cl)ccc32)cc1 (stereo not shown) [Example 82, 5-Chloro-1-(4-methoxybenzenesulfonyl)-3-[2-oxo-1-phenyl-2-(4-pyridin-2-ylpiperazin-1-yl)ethyl]-1,3-dihydrobenzimidazol-2-one] | 500 to 10000 nM
COc1ccc(S(=O)(=O)n2c(=O)n(C(C(=O)N3CCCC3c3ccccc3)c3ccccc3)c3cc(Cl)ccc32)cc1 (stereo not shown) [Example 83, 5-Chloro-1-(4-methoxybenzenesulfonyl)-3-[2-oxo-1-phenyl-2-(2-phenylpyrrolidin-1-yl)ethyl]-1,3-dihydrobenzimidazol-2-one] | 500 to 10000 nM
COc1ccc(S(=O)(=O)n2c(=O)n(C(C(=O)N3CCC3)c3ccccc3)c3cc(Cl)ccc32)cc1 (stereo not shown) [Example 84, 3-(2-Azetidin-1-yl-2-oxo-1-phenylethyl)-5-chloro-1-(4-methoxybenzenesulfonyl)-1,3-dihydrobenzimidazol-2-one] | 500 to 10000 nM
COc1ccc(S(=O)(=O)n2c(=O)n(CC(=O)N3CCN(C)CC3)c3cc(Cl)ccc32)cc1 [Example 85, 5-Chloro-1-(4-methoxybenzenesulfonyl)-3-[2-(4-methylpiperazin-1-yl)-2-oxoethyl]-1,3-dihydrobenzimidazol-2-one] | 500 to 10000 nM
COc1ccc(S(=O)(=O)n2c(=O)n(CC(=O)N3CCN(C4CCN(C)CC4)CC3)c3cc(Cl)ccc32)cc1 [Example 86, 5-Chloro-1-(4-methoxybenzenesulfonyl)-3-{2-[4-(1-methylpiperidin-4-yl)piperazin-1-yl]-2-oxoethyl}-1,3-dihydrobenzimidazol-2-one] | 500 to 10000 nM
COc1ccc(S(=O)(=O)n2c(=O)n(CC(=O)N3CCCCC3)c3cc(Cl)ccc32)cc1 [Example 87, 5-Chloro-1-(4-methoxybenzenesulfonyl)-3-(2-oxo-2-piperidin-1-yl-ethyl)-1,3-dihydrobenzimidazol-2-one] | 500 to 10000 nM
